Measured values from patent US20260125346A1, “Isoquinolinone Derivatives and 4H-Quinolizinone Derivatives and Pharmaceutical Compositions Thereof for the Treatment of Disease” (BeOne Medicines I GmbH, priority 2023, published 2026).

What was measured:
[1] = target: PI3Kα (p110[H1047R]/p85) kinase (Homo sapiens, UniProt P42336, H1047R); test: PI3Kα (p110[H1047R]/p85) kinase ADP-Glo Assay; type: biochemical; conditions: 25 uM ATP; for selectivity: WT/H1047R: ADP-Glo Assay IC50 ratio
Experimental: PI3Kα (p110[H1047R]/p85) kinase ADP-Glo Assay. Certain compounds disclosed herein were tested for inhibition of PI3Kα (p110[H1047R]/p85) kinase in assays based on the ADP-Glo™ Kinase Assay methodology. The assays were carried out in 384-well white plates in a reaction mixture containing PI3Kα (p110[H1047R]/p85) kinase, 25 µM ATP, 5.35 µg/ml PI(4,5)P2:PS Lipid Kinase Substrate and […] compound in buffer containing 50 mM HEPES pH7.5, 50 mM NaCl, 3 mM MgCl2, 0.0025% BSA and 2 mM DTT. PI3Kα (p110[H1047R]/p85) kinase was incubated with Lipid Kinase Substrate and compound for 30 minutes at room temperature and the reaction was initiated by the addition of ATP.
After reaction at room temperature for 120 minutes, ADP-Glo™ reagents were added to terminate the kinase reaction and deplete the remaining ATP according to the manufacture's instruction (Promega Corporation). After incubation at room temperature for 1 hour, Kinase Detection Reagent (prepared by reconstituting the lyophilized Kinase Detection Substrate with Kinase Detection Buffer of the kit) was added to convert the ADP to ATP and to allow for the newly synthesized ATP to be measured using a luciferase/luciferin reaction. After incubation at room temperature for 0.5 hour, chemiluminescence signals were recorded on a PHERAstar FSX plate reader (BMG Labtech). The chemiluminescence generated in this assay correlates to the amount of ADP generated in the kinase assay, indicating kinase activity. […] The IC50 for each compound was derived from fitting the data to the four-parameter logistic equation by Dotmatics.

WT cell line SK-BR-3 [2] = test: Phospho-AKT (Ser473) Inhibition Assay (HTRF), SK-BR-3; type: cell-based; conditions: Homo sapiens; SK-BR-3, 1 hour treatment; read-out: p-AKT Inhibition assay (S473) IC50 SK-BR-3
Experimental: (§1) The SK-BR-3 (ATCC, HTB-30) cell line was obtained from the American Type Culture Collection. Cells were maintained in McCoy' 5A medium (Gibco, REF #16600108) supplemented with 10% Fetal Bovine Serum. Cultures were maintained in a humidified incubator at 37° C. under 5% CO2/95% air.
Phospho-AKT Inhibition Assay. HTRF Phospho-AKT (Ser473) detection kit (Cisbio, REF #64AKSPEH) was used in phosphor-AKT inhibition assay. For compound screening, PI3Kα H1047R mutated cell line T-47D and WT cell line SK-BR-3 cells were seeded at a density of 3×10^4 cells per well in 96 well plate (Costar, REF #3599) in 95 μL of assay medium (MEM medium (Gibco, REF #12561-056) with 1×NEAA (Gibco, REF #11140-050), 1 mM sodium pyruvate (Gibco, REF #11360-070), and 1 g/ml human insulin (Topscience, REF #T8221)), overnight. Compounds dissolved in 10 mM stock solutions in DMSO were serially diluted 1:3 in DMSO to generate an 11-point dilution series and plated using an INTEGRA ASSIST PLUS pipetting robot. A 20× intermediate compound dilution plate in RPMI1640 medium (200 M starting compound concentration in 2% DMSO) was then prepared. Five μL of intermediate serially diluted compounds were added to the cell plate to final concentrations ranging from […] to 0.1 nM in 0.1% DMSO. 0.1% DMSO alone was used to establish the maximum signal and GDC0077 at final concentration of 10 μM was used as a reference compound for minimum signal. After 1 hour treatment, removed medium and added 50 μL of supplemented lysis buffer (1×) immediately. Incubated for at least 30 minutes at room temperature under shaking. Transferred 16 μL of cell lysate from the 96-well cell-culture plate to a 384-white detection plate (PerkinElmer, Optiplate 384, 6007299). Added 4 μL of premixed antibody solutions prepared in the detection buffer. Incubated 4 hours at room temperature in dark. The plates were read on PHERAstar FSX Microplate reader (BMG LABTECH, Inc.) using standard HTRF settings.
Relative IC50 values were determined using luminescence units by calculating percent inhibition with respect to the in-plate “MIN” (GDC0077 reference control) and “MAX” (DMSO) controls. The data were analyzed using a 4-parameter nonlinear logistic equation (four-parameter logistic concentration-response curve): Y=bottom+[(top−bottom)/1+(X/IC50) slope] • where Y=% inhibition, X=concentration of inhibitor, bottom=minimum value of y attained by curve-fit, top=maximum value of y attained by curve-fit and slope=steepness of curve at the IC50.

WT cell line SK-BR-3 [3] = test: Cell Proliferation Assay (CellTiter-Glo), SK-BR-3; type: cell-based; conditions: Homo sapiens, 72 h; SK-BR-3, 3 days treatment
Experimental: as §1
Cell Proliferation Assay. PI3Kα H1047R mutated cell line T-47D cells and WT cell line SK-BR-3 were seeded at a density of 3×10^3 cells per well in 96 well plate (Xinyou Biotechnology, 062096) in 95 μL of culture medium, overnight. Compounds dissolved in 10 mM stock solutions in DMSO were serially diluted 1:3 in DMSO to generate a 9-point dilution series and plated using an INTEGRA ASSIST Plus pipetting robot. A 20× intermediate compound dilution plate in RPMI1640 medium (200 M starting compound concentration in 2% DMSO) was then prepared. Five μL of intermediate serially diluted compounds were added to the cell plate to final concentrations ranging from […] to 1 nM in 0.1% DMSO. 0.1% DMSO alone was used to establish the maximum signal and medium without cells was for minimum signal. After 3 days treatment, equilibrated the plate and its contents at room temperature for approximately 30 minutes. Added 30 μL CellTiter-Glo® Reagent (Promega, REF #G7571) to each well. Then mixed contents for 5 min on plate shaker to induce cell lysis. Incubated at room temperature for 10 minutes to stabilize luminescent signal. The plates were read on PHERAstar FSX Microplate reader using standard luminescence settings.
Relative IC50 values were determined using luminescence units by calculating percent inhibition with respect to the in-plate “MIN” (medium only) and “MAX” (0.1% DMSO) controls. The data were analyzed using a 4-parameter nonlinear logistic equation (four-parameter logistic concentration-response curve): Y=bottom+[(top−bottom)/1+(X/IC50) slope] • where Y=% inhibition, X=concentration of inhibitor, bottom=minimum value of y attained by curve-fit, top=maximum value of y attained by curve-fit and slope=steepness of curve at the IC50.

Sequence of PI3Kα (p110[H1047R]/p85) kinase (P42336 whole entry H1047R): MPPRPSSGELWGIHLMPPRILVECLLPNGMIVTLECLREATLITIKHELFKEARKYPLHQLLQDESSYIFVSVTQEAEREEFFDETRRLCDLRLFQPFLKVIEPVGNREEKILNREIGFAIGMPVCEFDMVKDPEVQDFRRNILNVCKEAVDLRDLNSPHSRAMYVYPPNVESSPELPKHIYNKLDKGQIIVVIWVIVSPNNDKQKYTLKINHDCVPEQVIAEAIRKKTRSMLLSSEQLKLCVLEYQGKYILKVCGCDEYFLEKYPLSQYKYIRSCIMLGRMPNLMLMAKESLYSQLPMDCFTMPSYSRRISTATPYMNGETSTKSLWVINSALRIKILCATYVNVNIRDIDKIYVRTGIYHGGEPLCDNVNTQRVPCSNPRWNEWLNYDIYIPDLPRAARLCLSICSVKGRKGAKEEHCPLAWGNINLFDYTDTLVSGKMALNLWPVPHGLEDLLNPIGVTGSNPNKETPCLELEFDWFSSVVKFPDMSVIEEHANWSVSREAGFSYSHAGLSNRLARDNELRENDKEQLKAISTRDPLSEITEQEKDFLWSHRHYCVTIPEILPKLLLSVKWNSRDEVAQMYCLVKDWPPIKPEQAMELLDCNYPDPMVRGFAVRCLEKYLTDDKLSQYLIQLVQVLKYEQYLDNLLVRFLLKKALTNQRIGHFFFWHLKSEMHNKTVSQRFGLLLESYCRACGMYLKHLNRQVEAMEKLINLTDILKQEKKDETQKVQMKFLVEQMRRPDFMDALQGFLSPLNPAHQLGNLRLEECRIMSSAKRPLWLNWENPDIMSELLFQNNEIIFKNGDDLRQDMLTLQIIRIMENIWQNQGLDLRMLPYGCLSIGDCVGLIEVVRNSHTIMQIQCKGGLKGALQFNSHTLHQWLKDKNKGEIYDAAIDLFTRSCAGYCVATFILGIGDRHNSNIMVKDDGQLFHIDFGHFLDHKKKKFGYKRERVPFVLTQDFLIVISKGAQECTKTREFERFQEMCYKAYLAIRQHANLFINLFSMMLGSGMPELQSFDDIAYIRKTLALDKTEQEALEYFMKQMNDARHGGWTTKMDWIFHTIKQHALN
Sequence of PI3Kα (p110[H1047R]/p85) kinase (P27986 whole entry partner): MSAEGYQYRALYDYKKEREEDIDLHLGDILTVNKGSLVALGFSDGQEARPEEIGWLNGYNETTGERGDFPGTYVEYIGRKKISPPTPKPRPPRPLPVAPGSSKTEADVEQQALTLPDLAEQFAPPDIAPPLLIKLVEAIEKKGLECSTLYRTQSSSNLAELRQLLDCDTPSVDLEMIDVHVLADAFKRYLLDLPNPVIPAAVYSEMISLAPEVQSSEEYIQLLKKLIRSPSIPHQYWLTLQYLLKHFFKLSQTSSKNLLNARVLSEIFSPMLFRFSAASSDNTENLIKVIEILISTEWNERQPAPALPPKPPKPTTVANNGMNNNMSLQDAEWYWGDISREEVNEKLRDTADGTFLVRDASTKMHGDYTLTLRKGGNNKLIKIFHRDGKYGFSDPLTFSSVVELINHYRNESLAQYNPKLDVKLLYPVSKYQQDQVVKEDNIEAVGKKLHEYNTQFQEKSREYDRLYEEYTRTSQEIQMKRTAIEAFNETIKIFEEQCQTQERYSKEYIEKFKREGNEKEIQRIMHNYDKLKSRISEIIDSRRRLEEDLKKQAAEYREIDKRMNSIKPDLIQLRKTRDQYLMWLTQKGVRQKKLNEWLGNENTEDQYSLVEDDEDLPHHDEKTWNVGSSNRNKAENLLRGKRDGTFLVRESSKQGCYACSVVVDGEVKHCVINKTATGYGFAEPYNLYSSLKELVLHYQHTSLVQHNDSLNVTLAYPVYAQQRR

Cc1cc([C@H](C)Nc2ccccc2C(=O)O)c2cc(-c3ccccc3)n(C)c(=O)c2c1 [Example 31, (S)-2-((1-(2,7-dimethyl-1-oxo-3-phenyl-1,2-dihydroisoquinolin-5-yl)ethyl)amino)benzoic acid]
IC50 [1]: > 100 µM
IC50 (WT cell line SK-BR-3 [2]): > 10 µM
IC50 (WT cell line SK-BR-3 [3]): > 10 µM

Cc1cc(C(C)Nc2ccccc2C(=O)O)c2cc(-c3ccc4nn(C)cc4c3)n(C)c(=O)c2c1 (stereo not shown) [Example 19, 2-((1-(2,7-dimethyl-3-(2-methyl-2H-indazol-5-yl)-1-oxo-1,2-dihydroisoquinolin-5-yl)ethyl)amino)benzoic acid]
IC50 [1]: 0.311 µM
selectivity: WT/H1047R [1]: 21.1
IC50 (WT cell line SK-BR-3 [2]): 2.29 µM
IC50 (WT cell line SK-BR-3 [3]): > 10 µM

Cc1cc(C(C)Nc2ccccc2C(=O)O)c2cc(-c3ccccc3)n(C)c(=O)c2c1 (stereo not shown) [Example 1, 2-((1-(2,7-dimethyl-1-oxo-3-phenyl-1,2-dihydroisoquinolin-5-yl)ethyl)amino)benzoic acid]
IC50 [1]: 0.17 µM
selectivity: WT/H1047R [1]: 16.3
IC50 (WT cell line SK-BR-3 [2]): 2.11 µM
IC50 (WT cell line SK-BR-3 [3]): > 10 µM

Cc1cc(C(C)Nc2ccccc2C(=O)O)c2cc(C3=Cc4ccccc4CC3)n(C)c(=O)c2c1 (stereo not shown) [Example 45, 2-((1-(3-(3,4-dihydronaphthalen-2-yl)-2,7-dimethyl-1-oxo-1,2-dihydroisoquinolin-5-yl)ethyl)amino)benzoic acid]
IC50 [1]: 0.273 µM
selectivity: WT/H1047R [1]: 26.4
IC50 (WT cell line SK-BR-3 [2]): 2.82 µM
IC50 (WT cell line SK-BR-3 [3]): > 10 µM

Cc1cc(C(C)Nc2ccccc2C(=O)O)c2cc(C3=CCN(c4ccccc4)C3)n(C)c(=O)c2c1 (stereo not shown) [Example 76, 2-((1-(2,7-dimethyl-1-oxo-3-(1-phenyl-2,5-dihydro-1H-pyrrol-3-yl)-1,2-dihydroisoquinolin-5-yl)ethyl)amino)benzoic acid]
IC50 [1]: 0.516 µM
selectivity: WT/H1047R [1]: 22.8
IC50 (WT cell line SK-BR-3 [2]): 5.34 µM
IC50 (WT cell line SK-BR-3 [3]): > 10 µM

Cc1cc(C(C)Nc2ccccc2C(=O)O)c2cc(-c3ccc(C4(O)CC4)cc3)n(C)c(=O)c2c1 (stereo not shown) [Example 62, 2-((1-(3-(4-(1-hydroxycyclopropyl)phenyl)-2,7-dimethyl-1-oxo-1,2-dihydroisoquinolin-5-yl)ethyl)amino)benzoic acid]
IC50 [1]: 0.23 µM
selectivity: WT/H1047R [1]: 20.6
IC50 (WT cell line SK-BR-3 [2]): 2.97 µM
IC50 (WT cell line SK-BR-3 [3]): > 10 µM

Cc1cc(C(C)Nc2ccccc2C(=O)O)c2cc(-c3ccc(F)cc3)n(C)c(=O)c2c1 (stereo not shown) [Example 8, 2-((1-(3-(4-fluorophenyl)-2,7-dimethyl-1-oxo-1,2-dihydroisoquinolin-5-yl)ethyl)amino)benzoic acid]
IC50 [1]: 0.183 µM
selectivity: WT/H1047R [1]: 32.6
IC50 (WT cell line SK-BR-3 [2]): 2.5 µM
IC50 (WT cell line SK-BR-3 [3]): > 10 µM

Cc1cc(C(C)Nc2ccccc2C(=O)O)c2cc(-c3cccc4cn(C)nc34)n(C)c(=O)c2c1 (stereo not shown) [Example 22, 2-((1-(2,7-dimethyl-3-(2-methyl-2H-indazol-7-yl)-1-oxo-1,2-dihydroisoquinolin-5-yl)ethyl)amino)benzoic acid]
IC50 [1]: 1.73 µM
selectivity: WT/H1047R [1]: 30.3
IC50 (WT cell line SK-BR-3 [2]): > 10 µM
IC50 (WT cell line SK-BR-3 [3]): > 10 µM

Cc1cc(C(C)Nc2ccccc2C(=O)O)c2cc(C#Cc3ccccc3)n(C)c(=O)c2c1 (stereo not shown) [Example 43, 2-((1-(2,7-dimethyl-1-oxo-3-(phenylethynyl)-1,2-dihydroisoquinolin-5-yl)ethyl)amino)benzoic acid]
IC50 [1]: 0.235 µM
selectivity: WT/H1047R [1]: 10.1
IC50 (WT cell line SK-BR-3 [2]): 1.64 µM
IC50 (WT cell line SK-BR-3 [3]): > 10 µM

Cc1cc(C(C)Nc2ccccc2C(=O)O)c2cc(C#CC3(O)CCCC3)n(C)c(=O)c2c1 (stereo not shown) [Example 89, 2-((1-(3-((1-hydroxycyclopentyl)ethynyl)-2,7-dimethyl-1-oxo-1,2-dihydroisoquinolin-5-yl)ethyl)amino)benzoic acid]
IC50 [1]: 0.158 µM
selectivity: WT/H1047R [1]: 43.3
IC50 (WT cell line SK-BR-3 [2]): 6.84 µM
IC50 (WT cell line SK-BR-3 [3]): > 10 µM

Cc1cc(C(C)Nc2ccccc2C(=O)O)c2cc(-c3cccc(C(F)(F)F)c3)n(C)c(=O)c2c1 (stereo not shown) [Example 50, 2-((1-(2,7-dimethyl-1-oxo-3-(3-(trifluoromethyl)phenyl)-1,2-dihydroisoquinolin-5-yl)ethyl)amino)benzoic acid]
IC50 [1]: 0.376 µM
selectivity: WT/H1047R [1]: 27.6
IC50 (WT cell line SK-BR-3 [2]): 6.85 µM
IC50 (WT cell line SK-BR-3 [3]): > 10 µM

Cc1cc(C(C)Nc2ccccc2C(=O)O)c2cc(-c3ccc(N4CCCC4)cc3)n(C)c(=O)c2c1 (stereo not shown) [Example 84, 2-((1-(2,7-dimethyl-1-oxo-3-(4-(pyrrolidin-1-yl)phenyl)-1,2-dihydroisoquinolin-5-yl)ethyl)amino)benzoic acid]
IC50 [1]: 0.242 µM
selectivity: WT/H1047R [1]: 60.4
IC50 (WT cell line SK-BR-3 [2]): 3.12 µM
IC50 (WT cell line SK-BR-3 [3]): > 10 µM

Cc1cc([C@H](C)Nc2ccccc2C(=O)O)c2cc(-c3ccc(F)cc3)n(C)c(=O)c2c1 [Example 35, (S)-2-((1-(3-(4-fluorophenyl)-2,7-dimethyl-1-oxo-1,2-dihydroisoquinolin-5-yl)ethyl)amino)benzoic acid]
IC50 [1]: > 100 µM
IC50 (WT cell line SK-BR-3 [2]): > 10 µM
IC50 (WT cell line SK-BR-3 [3]): > 10 µM

Cc1cc(C(C)Nc2ccccc2C(=O)O)c2cc(-c3cncc(F)c3)n(C)c(=O)c2c1 (stereo not shown) [Example 38, 2-((1-(3-(5-fluoropyridin-3-yl)-2,7-dimethyl-1-oxo-1,2-dihydroisoquinolin-5-yl)ethyl)amino)benzoic acid]
IC50 [1]: 0.267 µM
selectivity: WT/H1047R [1]: 36.7
IC50 (WT cell line SK-BR-3 [2]): > 10 µM
IC50 (WT cell line SK-BR-3 [3]): > 10 µM

Cc1cc(C(C)Nc2ccccc2C(=O)O)c2cc(/C=C/c3ccccc3)n(C)c(=O)c2c1 (stereo not shown) [Example 44, (E)-2-((1-(2,7-dimethyl-1-oxo-3-styryl-1,2-dihydroisoquinolin-5-yl)ethyl)amino)benzoic acid]
IC50 [1]: 0.795 µM
selectivity: WT/H1047R [1]: 2.3
IC50 (WT cell line SK-BR-3 [2]): 2.13 µM
IC50 (WT cell line SK-BR-3 [3]): > 10 µM
